# Patent US12109184B2, “Personalized methods of treating cancer” (CANCER RESEARCH TECHNOLOGY LIMITED, priority 2020, dated 2024)
# “Also recorded” adds a separate entry of the source.
# How the values were obtained:
# Assay type in all cases: cell-based
# [1] = test system: MDA-MB-231, MIAPaCa-2 and PANC-1 cells; assay: Cell counting during cysteine starvation, starvation-sensitive cell lines
# Method: (§1) The base medium formulation contained 0.2 mM L-histidine, 0.4 mM L-isoleucine, 0.4 mM L-leucine, 0.4 mM L-lysine, 0.2 mM L-phenylalanine, 0.4 mM L-threonine, 0.08 mM L-tryptophan, 0.4 mM L-valine, 0.2 mM L-arginine, 2 mM L-glutamine, 0.2 mM L-tyrosine, 0.4 mM L-alanine, 0.3 mM L-proline, 0.15 mM L-glutamic acid, 0.1 mM L-aspartic acid, 0.2 mM L-asparagine, and 0.4 mM glycine.
# (§2) DAPI-stained cell nuclei were detected via microscopy.
# (§3) AMD1 inhibitor sardomozide/SAM486A, GPX4 inhibitor RSL3, and CSE inhibitor beta-cyano-L-alanine were used.
# (§4) For experiments using spermine oxidase (SMOX) and polyamine oxidase (PAOX) inhibitors or MTOB, cells were pre-treated with stated concentrations for 16 hours in complete medium. After pre-treatment, cells were washed in PBS, and treatment was continued in complete or cysteine-free medium for stated times. After treatment was finished, cells were fixed and stained as described above. For experiments using MTA, polyamines, GPX4 and CSE inhibitors, treatment started at the same time as cysteine starvation. For experiments involving hypoxic conditions, cells were seeded in normoxic conditions and allowed to adhere for 24 hours before control and cysteine starvation medium was added and cells were immediately transferred either to a humidified cell culture incubator set to 37° C. in 20% O2 (normoxia), or a hypoxia chamber set to 37° C. in 1% O2 (hypoxia) for the stated times. Cells were fixed immediately and stained as described above.
# [2] = test system: HCT116, SW480 and MDA-MB-468 cells; assay: Cell counting during cysteine starvation, starvation-resistant cell lines; conditions: for cysteine starvation sensitivity on polyamine supplementation: polyamine 20 μM in medium without cysteine
# Method: as §1, §2, §3, §4
# [3] = test system: MDA-MB-231, PANC-1, and MIAPaCa-2 cells; assay: CellROX assay on live cells, starvation-sensitive cell lines; conditions: −Cys, 16 h timepoint
# Method: (§5) Cells were seeded as described above. Live cells were stained with Hoechst 33342 nuclear stain for 20 min. The medium was removed, and cells were stained in 100 μl medium containing CellTracker™ Green CMFDA Dye and Hoechst stain for 40 min. The cells were then washed with PBS, and 300 μl of the relevant experimental medium was added for 1 hour. Then, CellROX® Deep Red was spiked into the medium, and the cells were incubated for 40 min. The medium was removed, the cells were washed with PBS, and new relevant experimental medium including CellROX was added. The cells were imaged using an Operetta automated microscope platform set to 37° C. in 5% CO2 every hour for 16-24 hours. I
# [4] = test system: MTAP-deleted HCT116 cells; assay: Cell counting during cysteine starvation, MTAP-deleted HCT116
# Text: [NT] Successfully transfected cells were selected with puromycin and grown as clonal colonies. Clones were selected based initially on MTA efflux measured by liquid chromatography mass spectrometry (LC-MS). Clones with greatest MTA efflux were selected, and methylthioadenosine phosphorylase knockout (MTAP-KO) was then confirmed by western blot. MTAP-KO HCT116 cells were transfected with pCMV-Hygro-MTAP and pCMV-Hygro-negative control vector, selected using hygromycin B, and grown as clonal colonies. Clones were selected based initially on MTA efflux measured by LC-MS. Clones with low MTA efflux were selected, then MTAP re-expression was confirmed by western blot. […] DAPI-stained cell nuclei were detected via microscopy. […] For experiments using spermine oxidase (SMOX) and polyamine oxidase (PAOX) inhibitors or MTOB, cells were pre-treated with stated concentrations for 16 hours in complete medium. After pre-treatment, cells were washed in PBS, and treatment was continued in complete or cysteine-free medium for stated times. After treatment was finished, cells were fixed and stained as described above. For experiments using MTA, polyamines, GPX4 and CSE inhibitors, treatment started at the same time as cysteine starvation. For experiments involving hypoxic conditions, cells were seeded in normoxic conditions and allowed to adhere for 24 hours before control and cysteine starvation medium was added and cells were immediately transferred either to a humidified cell culture incubator set to 37° C. in 20% O2 (normoxia), or a hypoxia chamber set to 37° C. in 1% O2 (hypoxia) for the stated times. Cells were fixed immediately and stained as described above.
# [5] = test system: MTAP-expressing HCT116 cells; assay: Cell counting during cysteine starvation, MTAP-expressing HCT116; conditions: SMOX inhibitor, PAOX inhibitor or MTOB supplementation
# Text: [NT] Successfully transfected cells were selected with puromycin and grown as clonal colonies. Clones were selected based initially on MTA efflux measured by liquid chromatography mass spectrometry (LC-MS). Clones with greatest MTA efflux were selected, and methylthioadenosine phosphorylase knockout (MTAP-KO) was then confirmed by western blot. MTAP-KO HCT116 cells were transfected with pCMV-Hygro-MTAP and pCMV-Hygro-negative control vector, selected using hygromycin B, and grown as clonal colonies. Clones were selected based initially on MTA efflux measured by LC-MS. Clones with low MTA efflux were selected, then MTAP re-expression was confirmed by western blot. […] DAPI-stained cell nuclei were detected via microscopy. For experiments using spermine oxidase (SMOX) and polyamine oxidase (PAOX) inhibitors or MTOB, cells were pre-treated with stated concentrations for 16 hours in complete medium. After pre-treatment, cells were washed in PBS, and treatment was continued in complete or cysteine-free medium for stated times. After treatment was finished, cells were fixed and stained as described above. For experiments using MTA, polyamines, GPX4 and CSE inhibitors, treatment started at the same time as cysteine starvation. For experiments involving hypoxic conditions, cells were seeded in normoxic conditions and allowed to adhere for 24 hours before control and cysteine starvation medium was added and cells were immediately transferred either to a humidified cell culture incubator set to 37° C. in 20% O2 (normoxia), or a hypoxia chamber set to 37° C. in 1% O2 (hypoxia) for the stated times. Cells were fixed immediately and stained as described above.
# [6] = test system: breast, colorectal and pancreatic cancer cell lines; assay: Cell counting in complete or cysteine-free medium, cell lines not given; conditions: AMD1 inhibitor or MTOB supplementation
# Method: as §1, §2, §3, §4
# [7] = test system: MDA-MB-231, PANC-1, and MIAPaCa-2 cells; assay: LC-MS analysis with labelled methionine (polyamine and TsP labelling); conditions: 20 μM sardomozide or 0.1 mM MTOB
# Method: For experiments using labelled methionine, the same basic protocol was used as described for the steady state metabolite measurements described above. Experimental media were formulated lacking methionine or serine (described above) and supplemented with the stated concentrations of ^13C5^15N1-methionine, ^13C3^15N1-serine or ^34S1-methionine. Metabolites were extracted as described above.
# Prepared samples were analyzed on an LC-MS platform consisting of an Accela™ 600 LC system and an Exactive™ mass spectrometer. A Sequant® ZIC®-HILIC column (4.6 mm×150 mm, 3.5 μm) was used to separate the metabolites with the mobile phase using A=0.1% (v/v) formic acid in water and B=0.1% (v/v) formic acid in acetonitrile. A gradient program starting at 20% of A and linearly increasing to 80% at 30 min was used followed by washing (92% of A for 5 mins) and re-equilibration (20% of A for 10 min) steps. The total run time of the method was 45 min. The LC stream was desolvated and ionized in the HESI probe. The Exactive™ mass spectrometer was operated in full scan mode over a mass range of 70-1,200 m/z at a resolution of 50,000 with polarity switching. The LC-MS raw data was converted into mzML files by using ProteoWizard and imported to MZMine 2.10 for peak extraction and sample alignment. An in-house database including all possible ^13C and ^15N isotopic m/z values of the relevant metabolites was used for the assignment of LCMS signals. Finally the peak areas were used for comparative quantification.
# cysteine starved cells = assay: CellROX assay on live cells supplemented with polyamines; conditions: polyamine 20 μM in medium without cysteine
# Method: as §5
smiles,measurement,setting,value
C=C=CCNCCCCNCC=C=C [MDL 72527],cell death during cysteine starvation,"[1]; SMOX inhibitor 50 μM or PAOX inhibitor 10, 40, 80 μM, 16 h pre-treatment then −Cys",prevented cell death
same,cell survival and growth under polyamine treatment concurrent with cysteine starvation,"[2]; SMOX and PAOX inhibitors with spermidine or spermine, −Cys","restored HCT116, SW480, and MDA-MB-468 cell survival and growth"
same,advantage during cysteine starvation,"[2]; SMOX or PAOX inhibitor, 16 h pre-treatment then −Cys",little or no additional advantage
same,ROS levels (CellROX staining intensity),[3]; 50 μM SMOX inhibitor,allowed cells to maintain lower ROS levels
same,cell survival during cysteine starvation,"[4]; SMOX inhibitor, PAOX inhibitor or MTOB supplementation",rescued cell survival
same,impact on cell survival during cysteine starvation,[5],little impact
N=C(N)N/N=C1\CCc2c(C(=N)N)cccc21 [sardomozide],cell death in response to cysteine starvation,[1]; AMD1 inhibitor pre-treatment 16 h,prevented cell death
same,duration of rescue from cysteine starvation,[6],temporary
same,ROS levels (CellROX staining intensity),[3]; 20 μM AMD1 inhibitor,diminished ROS levels
same,levels of TsP intermediates,[7],did not appreciably increase
same,polyamine synthesis (dc-SAM and polyamine labelling),[7],marked inhibition of polyamine synthesis
same,cell survival in response to cysteine starvation,[4]; AMD1 inhibitor,restored cell survival
NCCCCNCCCN [spermidine],cysteine starvation sensitivity on polyamine supplementation,[2],dramatic impact; also recorded: dramatically sensitized cells to cysteine starvation
same,ROS levels (CellROX deep red),cysteine starved cells,rapid increase in ROS levels; also recorded: increased cellular ROS levels
NCCCNCCCCNCCCN [spermine],cysteine starvation sensitivity on polyamine supplementation,[2],dramatic impact; also recorded: dramatically sensitized cells to cysteine starvation
same,ROS levels (CellROX deep red),cysteine starved cells,rapid increase in ROS levels; also recorded: increased cellular ROS levels
